The text below walks through data of patent US20230032101A1, “FIVE-MEMBERED HETEROCYCLIC OXOCARBOXYLIC ACID COMPOUND AND MEDICAL USE THEREOF” (Shanghai Institute of Materia Medica, Chinese Academy of …, priority 2019, published 2023).

The test system of experiment [1] is type I interferon pathway in murine Raw-lucia cells. Description: Activation of type I interferon pathway in murine Raw-lucia cells (QUANTI-Luc luminescence). Format: cell-based. The settings on record: Mus musculus, 24 h, Compound Luminescence/Control Luminescence, ≥2 times considered valid, read-out: Fold Change. Here is the method:
Raw-lucia cells were counted, the cell concentration was adjusted to 5×10^5/mL, and 180 μL of cells were added to each well for incubation. 20 μL of compound diluted with physiological saline was added to each well of a 96-well cell culture plate after cells were adhered, the concentration of the compound was 50 μM/100 μM.
After 24 hours, 20 μL of the culture medium was took out from each well to a new 96-well plate with bottom-transmitting, 50 μL of the luciferase detection reagent QUANTI-Luc™ was added, and the […] was measured immediately (in the dark). The experiment was repeated twice.

The test system of experiment [2] is type I interferon pathway (ISG) in human THP1-Blue-ISG cells. The experiment in a line: Activation of type I interferon pathway (ISG) in human THP1-Blue-ISG cells (Quanti-Blue, OD650). Format: cell-based. The following applies: 24 h, Compound OD650/Control OD650, ≥2 times considered valid, read-out: Fold Change.
Experiment [3] has the same test system. Described as above. The following applies: Homo sapiens, THP1-Blue ISG; 10 μM, 24 h; Compound OD650/Control OD650; ≥2 times considered valid; read-out: Fold Change. Format: cell-based. How it is done: 20 μL of compound diluted with physiological saline was added to each well of a 96-well cell culture plate, the positive control compound was ADU-S100, and the solvent control group was added with 20 μL of physiological saline containing DMSO. THP1-Blue-ISG cells were counted, the cell concentration was adjusted to 5×10^5/mL, and 180 μL of cells were added to each well for incubation. Therefore, the final volume of each test well was 200 μL, the content of DMSO was 0.1%/0.5%, the test concentration of the compound was 10/50 μM, and the positive control compound was ADU-S100 at a final concentration of 10 μM, and incubated for 24 hours for detection.
After 24 hours, 20 μL of the culture solution was took out from each well to a new 96-well plate, 180 μL of chromogenic solution Quanti-Blue was added, placed in a 37° C. incubator, and the OD650 value was measured after 0.5-2 hours. The experiment was repeated twice.
The experimental results were used to evaluate the ability of compounds to induce the secretion of type I interferon pathway (ISG) by the Fold Change, which was calculated as follows:
Fold Change=Compound OD650/Control OD650, wherein the results of ≥2 times were considered valid.

The subject of experiment [4] is 4T1 mouse breast cancer cells. Description: 4T1 breast cancer orthotopic tumor model in vivo. The settings on record: Balb/C mice, intratumoral injection (IT), days 1/2/3/4/7; FIG. 1. How it is done:
6-8 week old Balb/C mice were inoculated with 2.5×10^5 4T1 mouse breast cancer cells in the mammary fat pad of each mouse. When the tumor volume grew to about 100 mm^3, the mice were randomly divided into 5 groups, 6 mice in each group.
(§1) Experimental results were evaluated in the form of tumor volume growth curves.

Experiment [5] concerns CT26 mouse colon cancer cells. Description: CT26 colon cancer subcutaneous xenograft model in vivo. The settings on record: Balb/C mice, intratumoral injection (IT), days 1/2/3/4/7; FIG. 2. Here is the method:
[…] When the tumor volume grew to about 100 mm^3, the mice were randomly divided into 5 groups, 6 mice in each group.
as §1

The target in experiment [6] is human-derived STING (Homo sapiens, UniProt Q86WV6). The settings on record: cited from earlier work.
human-derived STING, sequence (Q86WV6 whole entry H232R): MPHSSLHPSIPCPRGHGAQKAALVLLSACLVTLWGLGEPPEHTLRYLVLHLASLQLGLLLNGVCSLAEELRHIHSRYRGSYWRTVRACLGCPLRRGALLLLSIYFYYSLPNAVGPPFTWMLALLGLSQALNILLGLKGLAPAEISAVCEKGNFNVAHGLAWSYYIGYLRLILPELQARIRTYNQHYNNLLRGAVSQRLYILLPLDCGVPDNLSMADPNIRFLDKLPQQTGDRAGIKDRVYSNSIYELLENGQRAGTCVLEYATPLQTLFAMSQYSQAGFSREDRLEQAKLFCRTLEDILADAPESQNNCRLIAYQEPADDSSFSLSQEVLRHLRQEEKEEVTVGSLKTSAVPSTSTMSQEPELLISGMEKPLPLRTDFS

With `O=C(O)CCC(=O)c1cc(-c2coc3ccccc23)cs1` [I′-14, 4-(4-(benzofuran-3-yl)thiophen-2-yl)-4-oxobutyric Acid], the fold induction at 100 µM in experiment [1] worked out at 18.1. For the same compound, the fold induction at 25 µM in experiment [2] (25 μM) was 20.7.

For the compound `O=C(O)CCC(=O)c1cc(-c2c[nH]c3ccccc23)cs1` [I′-31, 4-(4-(1H-indol-3-yl)thiophen-2-yl)-4-oxobutyric Acid], the fold induction at 10 µM in experiment [3] is 13.8. In addition, the fold induction at 50 µM in experiment [1] (50 μM) is 21.8. Further, in experiment [4], the “anti-tumor effect (tumor volume growth curves)” value is given as “significant anti-tumor effect” and the tumor regression result was “tumor regression effect is achieved in some mouse tumor models”. In experiment [5], the “anti-tumor effect (tumor volume growth curves)” value is “significant anti-tumor effect” and the tumor regression entry is recorded as “tumor regression effect is achieved in some mouse tumor models”.

Consider `O=C(O)CCC(=O)c1cc(-c2coc3cc(F)ccc23)co1` [I′-42, 4-(4-(6-fluorobenzofuran-3-yl)furan-2-yl)-4-oxobutyric Acid], for which the fold induction at 100 µM in experiment [1] came to 7.45. The fold induction at 30 µM in experiment [2] is 16.8.

In the case of `O=C(O)CCC(=O)c1cc(-c2c[nH]c3ccc(F)cc23)cs1` [I′-48, 4-(4-(5-fluoro-1H-indol-3-yl)thiophen-2-yl)-4-oxobutyric Acid], the fold induction at 100 µM in experiment [1] is 7.63. In experiment [2], the fold induction at 30 µM worked out at 14.7.

For the compound `Cc1ccc2c(=O)c3cccc(CC(=O)O)c3oc2c1C` [DMXAA], in experiment [6], the “agonistic effect on STING” value is “ineffective”.
